Measurements published in ChEMBL document CHEMBL4229543, “Squaramides as novel class I and IIB histone deacetylase inhibitors for topical treatment of cutaneous t-cell lymphoma” (Bioorg Med Chem Lett, 2018).

Assays:
Histone deacetylase 2 = Histone deacetylase 2 (Homo sapiens, UniProt Q92769); assay: Inhibition of human recombinant HDAC2 using fluorogenic HDAC substrate after 15 mins by fluorimetrc method
[1] = biological target: T1, NAD-dependent protein deacetylase sirtuin-2 (Homo sapiens, UniProt Q8IXJ6); assay: Inhibition of human recombinant SIRT2 using fluoro-lysine sirtuin 2 deacetylase substrate after 60 mins by fluorimetrc method
T1 sequence (Q8IXJ6 whole entry): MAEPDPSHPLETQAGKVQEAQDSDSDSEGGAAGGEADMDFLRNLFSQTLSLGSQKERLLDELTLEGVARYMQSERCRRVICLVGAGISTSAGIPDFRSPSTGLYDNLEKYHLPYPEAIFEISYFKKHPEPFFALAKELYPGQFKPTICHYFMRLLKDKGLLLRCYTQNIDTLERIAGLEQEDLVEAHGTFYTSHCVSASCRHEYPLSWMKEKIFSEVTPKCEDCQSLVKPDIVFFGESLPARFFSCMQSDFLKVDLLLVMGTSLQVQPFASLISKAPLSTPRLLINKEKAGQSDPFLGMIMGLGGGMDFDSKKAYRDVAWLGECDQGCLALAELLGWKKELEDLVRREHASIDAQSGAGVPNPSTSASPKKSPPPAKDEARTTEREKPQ

Histone deacetylase 3 = Histone deacetylase 3 (Homo sapiens, UniProt O15379); assay: Inhibition of human recombinant HDAC3 using fluorogenic HDAC substrate after 10 mins by […] method
Histone deacetylase 8 = biological target: T2, Histone deacetylase 8 (Homo sapiens, UniProt Q9BY41); assay: Inhibition of human recombinant HDAC8 using fluorogenic HDAC substrate after 15 mins by fluorimetrc method
T2 sequence (Q9BY41 whole entry): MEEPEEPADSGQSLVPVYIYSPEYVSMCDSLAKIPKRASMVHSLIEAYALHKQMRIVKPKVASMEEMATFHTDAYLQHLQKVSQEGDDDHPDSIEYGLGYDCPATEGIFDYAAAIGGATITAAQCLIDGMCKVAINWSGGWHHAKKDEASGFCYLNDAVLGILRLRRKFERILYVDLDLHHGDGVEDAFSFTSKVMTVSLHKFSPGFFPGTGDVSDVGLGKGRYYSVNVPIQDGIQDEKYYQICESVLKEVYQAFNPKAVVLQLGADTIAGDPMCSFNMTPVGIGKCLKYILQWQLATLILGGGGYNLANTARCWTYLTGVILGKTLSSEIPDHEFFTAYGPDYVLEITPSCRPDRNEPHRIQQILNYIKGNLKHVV

Histone deacetylase 3, sequence (O15379 whole entry): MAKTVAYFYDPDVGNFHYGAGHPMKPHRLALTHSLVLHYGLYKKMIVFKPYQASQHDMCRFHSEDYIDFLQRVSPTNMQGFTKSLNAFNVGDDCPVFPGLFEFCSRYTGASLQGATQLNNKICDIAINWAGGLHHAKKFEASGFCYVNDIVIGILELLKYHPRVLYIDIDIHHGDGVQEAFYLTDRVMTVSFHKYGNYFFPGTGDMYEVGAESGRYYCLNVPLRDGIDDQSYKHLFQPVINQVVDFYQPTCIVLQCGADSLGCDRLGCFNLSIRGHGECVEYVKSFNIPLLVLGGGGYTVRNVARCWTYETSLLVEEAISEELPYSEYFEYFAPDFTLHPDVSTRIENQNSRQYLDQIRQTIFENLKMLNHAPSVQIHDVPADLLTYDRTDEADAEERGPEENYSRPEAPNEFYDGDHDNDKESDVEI
Histone deacetylase 2, sequence (Q92769 whole entry): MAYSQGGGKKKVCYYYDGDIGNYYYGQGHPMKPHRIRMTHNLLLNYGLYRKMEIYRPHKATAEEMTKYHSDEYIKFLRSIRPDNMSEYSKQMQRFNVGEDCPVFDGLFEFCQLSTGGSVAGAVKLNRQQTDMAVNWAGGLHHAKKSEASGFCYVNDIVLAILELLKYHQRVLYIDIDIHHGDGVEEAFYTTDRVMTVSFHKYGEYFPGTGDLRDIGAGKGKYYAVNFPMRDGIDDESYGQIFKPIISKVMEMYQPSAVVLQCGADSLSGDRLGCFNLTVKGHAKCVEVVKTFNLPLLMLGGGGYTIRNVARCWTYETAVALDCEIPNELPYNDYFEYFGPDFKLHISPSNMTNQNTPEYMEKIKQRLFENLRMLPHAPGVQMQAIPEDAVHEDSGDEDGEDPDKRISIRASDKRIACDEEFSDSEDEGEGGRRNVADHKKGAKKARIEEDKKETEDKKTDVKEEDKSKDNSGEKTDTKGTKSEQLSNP

Row | Ki (Histone deacetylase 2) [µM] | Ki [1] [µM] | Ki (Histone deacetylase 3) [µM] | Ki (Histone deacetylase 8) [µM] | Compound
1 | 0.0031 | > 10 | 0.0008 | 0.1 | COc1ccc(Nc2c(NCCCCCC(=O)NO)c(=O)c2=O)cc1
2 | 0.023 | > 10 | 0.012 | 0.11 | CC(C)(CCCCC(=O)NO)Nc1c(Nc2ccc(C(F)(F)F)cc2)c(=O)c1=O
3 | 0.13 | > 10 | 0.058 | 0.32 | CC(Nc1c(NCCCCCC(=O)NO)c(=O)c1=O)C12CC3CC(CC(C3)C1)C2 (configuration not stated)
